We go through 2 compounds from PMC7422721 (ACS chemical biology, 2019).

The IC50 is the point on the concentration scale where inhibition reaches its midpoint. The low end stands for higher potency, the high end for lower potency.

In assay [1] the target is T1, RNF4 (Homo sapiens, UniProt P78317).
T1 sequence (P78317 1-190): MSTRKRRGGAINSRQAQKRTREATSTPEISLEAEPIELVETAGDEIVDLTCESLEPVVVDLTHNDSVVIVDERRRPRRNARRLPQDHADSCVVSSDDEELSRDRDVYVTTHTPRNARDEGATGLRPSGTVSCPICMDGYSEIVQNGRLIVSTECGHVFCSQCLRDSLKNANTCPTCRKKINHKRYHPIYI
Nature of the assay: competitive gel-based ABPP against IA-rhodamine labeling of pure RNF4. It counts as binding.

For assay [2], the target named is T1, RNF4. Put plainly: LC-MS/MS of covalent adduct on purified RNF4. It counts as binding.

For `Cc1sc2c(c1C)C(c1ccc(Cl)cc1)=N[C@@H](CC(=O)NCCCCOc1ccc(Oc3ccc(N(Cc4ccccc4)C(=O)CCl)cc3)cc1)c1nnc(C)n1-2` [CCW 28-3, CCW 28–3], the half-inhibitory concentration (IC50) on RNF4 [1] stood at 540 nM.
As for TRH 1–23 [TRH 1-23], the IC50 result against RNF4 [2] is given as “double digit micromolar”.
